Measured values from US20230143604A1, “QW DOSING OF GIP RECEPTOR AGONIST PEPTIDE COMPOUNDS AND USES THEREOF” (TAKEDA PHARMACEUTICAL COMPANY LIMITED, priority 2020, published 2023).
Starred links: 1 amine or outer side, 2 acyl side, 3 side chain; linkers in the order of their positions; H or OH if unused. Positions of bridges follow the written chain, without caps; N, C: chain ends. Non-standard residues stand in square brackets, D forms with d. Residues, ends and D or L forms follow the SMILES beside them. Groups on a side chain read outwards from the residue. Chains are numbered I, II in the order given. *: point of attachment. C18 diacid = O=C(O)CCCCCCCCCCCCCCCCC(=O)*; γGlu = O=C(O)[C@H](CCC(=O)[*:2])N[*:1]; NMeY = CN[C@@H](Cc1ccc(O)cc1)C(=O)O; AEEA = NCCOCCOCC(=O)O; Aib = CC(C)(N)C(=O)O

Experiment: physchem
Outline: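 3 mg of peptide treated with 100 μL portions of 200 mM phosphate buffer pH 7.4, sonicating/vortexing up to 1 min, with further buffer added until fully dissolved. Solubility then quantified by HPLC.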

[1] = pH 7.4, aqueous buffer, pH 7.4 Phosphate Buffer - Solubility, 200 mM Phosphate buffer pH 7.4

Structure (SMILES)	solubility (pH 7.4, aqueous buffer)	solubility (pH 7.4)	solubility [1]	solubility (pH 7.4, solubility in phosphate buffer at pH 7.4, 200 mM phosphate buffer pH 7.4)
CC[C@H](C)[C@H](NC(=O)[C@H](CO)NC(=O)[C@H](Cc1ccc(O)cc1)NC(=O)[C@H](CC(=O)O)NC(=O)[C@H](CO)NC(=O)[C@@H](NC(=O)[C@H](Cc1ccccc1)NC(=O)[C@@H](NC(=O)CNC(=O)[C@H](CCC(=O)O)NC(=O)C(C)(C)NC(=O)[C@H](Cc1ccc(O)cc1)NC)[C@@H](C)O)[C@@H](C)CC)C(=O)N[C@@H](C)C(=O)N[C@@H](CCCCNC(=O)COCCOCCNC(=O)COCCOCCNC(=O)CC[C@H](NC(=O)CCCCCCCCCCCCCCCCC(=O)O)C(=O)O)C(=O)N[C@@H](CC(=O)O)C(=O)N[C@@H](CCCNC(=N)N)C(=O)NC(C)(C)C(=O)N[C@@H](C)C(=O)N[C@@H](CCC(N)=O)C(=O)N[C@@H](CCC(N)=O)C(=O)N[C@@H](CC(N)=O)C(=O)N[C@@H](Cc1ccccc1)C(=O)N[C@H](C(=O)N[C@@H](CC(N)=O)C(=O)N[C@@H](Cc1c[nH]c2ccccc12)C(=O)N[C@@H](CC(C)C)C(=O)N[C@@H](CC(C)C)C(=O)N[C@@H](C)C(=O)N[C@@H](CCC(N)=O)C(=O)N[C@@H](CCCNC(=N)N)C(N)=O)C(C)C [Compound 253] (H-[NMeY][Aib]EGTFISDYSIAK([AEEA-AEEA-γGlu-C18 diacid])DR[Aib]AQQNFVNWLLAQR-NH2)	≥ 7.4 mg/mL	–	–	–
CC[C@H](C)[C@H](NC(=O)[C@H](CO)NC(=O)[C@H](Cc1ccc(O)cc1)NC(=O)[C@H](CC(=O)O)NC(=O)[C@H](CO)NC(=O)[C@@H](NC(=O)[C@H](Cc1ccccc1)NC(=O)[C@@H](NC(=O)CNC(=O)[C@H](CCC(=O)O)NC(=O)C(C)(C)NC(=O)[C@@H](N)Cc1ccc(O)cc1)[C@@H](C)O)[C@@H](C)CC)C(=O)N[C@@H](C)C(=O)N[C@@H](CC(C)C)C(=O)N[C@@H](CC(=O)O)C(=O)N[C@@H](CCCCN)C(=O)NC(C)(C)C(=O)N[C@@H](CCCCNC(=O)COCCOCCNC(=O)COCCOCCNC(=O)CC[C@H](NC(=O)CCCCCCCCCCCCCCCCC(=O)O)C(=O)O)C(=O)N[C@@H](CCC(N)=O)C(=O)N[C@@H](C)C(=O)N[C@@H](CC(=O)O)C(=O)N[C@@H](Cc1ccccc1)C(=O)N[C@H](C(=O)N[C@@H](CCC(=O)O)C(=O)N[C@@H](Cc1c[nH]c2ccccc12)C(=O)N[C@@H](CC(C)C)C(=O)N[C@@H](CC(C)C)C(=O)N[C@@H](C)C(=O)N[C@@H](CCC(N)=O)C(=O)N[C@@H](CCCNC(=N)N)C(=O)NCC(=O)O)C(C)C [Compound 162] (H-Y[Aib]EGTFISDYSIALDK[Aib]K([AEEA-AEEA-γGlu-C18 diacid])QADFVEWLLAQRG-OH)	≥ 30 mg/mL	≥ 15 mg/mL	–	–
CC[C@H](C)[C@H](NC(=O)[C@H](CO)NC(=O)[C@H](Cc1ccc(O)cc1)NC(=O)[C@H](CC(=O)O)NC(=O)[C@H](CO)NC(=O)[C@@H](NC(=O)[C@H](Cc1ccccc1)NC(=O)[C@@H](NC(=O)CNC(=O)[C@H](CCC(=O)O)NC(=O)C(C)(C)NC(=O)[C@H](Cc1ccc(O)cc1)NC)[C@@H](C)O)[C@@H](C)CC)C(=O)N[C@@H](C)C(=O)N[C@@H](CC(C)C)C(=O)N[C@@H](CC(=O)O)C(=O)N[C@@H](CCCNC(=N)N)C(=O)N[C@@H](CCCCNC(=O)CNC(=O)CNC(=O)CNC(=O)CNC(=O)CNC(=O)CC[C@H](NC(=O)CCCCCCCCCCCCCCCC(=O)O)C(=O)O)C(=O)N[C@@H](Cc1c[nH]cn1)C(=O)N[C@@H](CCC(N)=O)C(=O)NC(C)(C)C(=O)N[C@@H](CC(N)=O)C(=O)N[C@@H](Cc1ccccc1)C(=O)N[C@H](C(=O)N[C@@H](CC(N)=O)C(=O)N[C@@H](Cc1c[nH]c2ccccc12)C(=O)N[C@@H](CC(C)C)C(=O)N[C@@H](CC(C)C)C(=O)N[C@@H](C)C(=O)N[C@@H](CCC(N)=O)C(=O)N[C@@H](CCCNC(=N)N)C(=O)N1CCC[C@H]1C(=O)N[C@@H](CO)C(=O)N[C@@H](CO)C(=O)NCC(=O)N[C@@H](C)C(=O)N1CCC[C@H]1C(=O)N1CCC[C@H]1C(=O)N1CCC[C@H]1C(=O)N[C@@H](CO)C(=O)O)C(C)C [Compound 20]	–	–	≥ 15 mg/mL	–
CC[C@H](C)[C@H](NC(=O)[C@H](Cc1ccccc1)NC(=O)[C@@H](NC(=O)CNC(=O)[C@H](CCC(=O)O)NC(=O)C(C)(C)NC(=O)[C@@H](N)Cc1ccc(O)cc1)[C@@H](C)O)C(=O)N[C@@H](CO)C(=O)N[C@@H](CC(=O)O)C(=O)N[C@@H](Cc1ccc(O)cc1)C(=O)N[C@@H](CO)C(=O)N[C@H](C(=O)NC(C)(C)C(=O)N[C@@H](CC(C)C)C(=O)N[C@@H](CC(=O)O)C(=O)N[C@@H](CCCNC(=N)N)C(=O)NC(C)(C)C(=O)N[C@@H](C)C(=O)N[C@@H](CCC(N)=O)C(=O)NC(C)(C)C(=O)N[C@@H](CCCCNC(=O)COCCOCCNC(=O)COCCOCCNC(=O)CC[C@H](NC(=O)CC[C@H](NC(=O)CCCCCCCCCCCCCCCCC(=O)O)C(=O)O)C(=O)O)C(=O)N[C@@H](Cc1ccccc1)C(=O)N[C@H](C(=O)N[C@@H](CC(N)=O)C(=O)N[C@@H](Cc1c[nH]c2ccccc12)C(=O)N[C@@H](CC(C)C)C(=O)N[C@@H](CC(C)C)C(=O)N[C@@H](C)C(=O)N[C@@H](CCC(N)=O)C(=O)N[C@@H](CCCNC(=N)N)C(=O)NCC(=O)O)C(C)C)[C@@H](C)CC [Compound 141] (H-Y[Aib]EGTFISDYSI[Aib]LDR[Aib]AQ[Aib]K([AEEA-AEEA-γGlu-γGlu-C18 diacid])FVNWLLAQRG-OH)	≥ 30 mg/mL	≥ 15 mg/mL	–	–
CC[C@H](C)[C@H](NC(=O)[C@H](CO)NC(=O)[C@H](Cc1ccc(O)cc1)NC(=O)[C@H](CC(=O)O)NC(=O)[C@H](CO)NC(=O)[C@@H](NC(=O)[C@H](Cc1ccccc1)NC(=O)[C@@H](NC(=O)CNC(=O)[C@H](CCC(=O)O)NC(=O)C(C)(C)NC(=O)[C@H](Cc1ccc(O)cc1)NC)[C@@H](C)O)[C@@H](C)CC)C(=O)N[C@@H](C)C(=O)N[C@@H](CC(C)C)C(=O)N[C@@H](CC(=O)O)C(=O)N[C@@H](CCCNC(=N)N)C(=O)NC(C)(C)C(=O)N[C@@H](CCCCNC(=O)CNC(=O)CNC(=O)[C@@H]1CCCN1C(=O)[C@H](C)NC(=O)[C@@H]1CCCN1C(=O)[C@H](C)NC(=O)[C@@H]1CCCN1C(=O)CC[C@H](NC(=O)CCCCCCCCCCCCCCCCC(=O)O)C(=O)O)C(=O)N[C@@H](CCC(N)=O)C(=O)NC(C)(C)C(=O)N[C@@H](CC(=O)O)C(=O)N[C@@H](Cc1ccccc1)C(=O)N[C@H](C(=O)N[C@@H](CC(N)=O)C(=O)N[C@@H](Cc1c[nH]c2ccccc12)C(=O)N[C@@H](CC(C)C)C(=O)N[C@@H](CC(C)C)C(=O)N[C@@H](C)C(=O)N[C@@H](CCC(N)=O)C(=O)N[C@@H](CO)C(=O)N1CCC[C@H]1C(=O)NCC(=O)O)C(C)C [Compound 136] (I: H-[NMeY][Aib]EGTFISDYSIALDR[Aib]KQ[Aib]DFVNWLLAQSPG-OH / II: {C18 diacid-γGlu}-PAPAPGG; amide I:18-II:C)	≥ 30 mg/mL	≥ 15 mg/mL	–	–
CC[C@H](C)[C@H](NC(=O)[C@H](CO)NC(=O)[C@H](Cc1ccc(O)cc1)NC(=O)[C@H](CC(=O)O)NC(=O)[C@H](CO)NC(=O)[C@@H](NC(=O)[C@H](Cc1ccccc1)NC(=O)[C@@H](NC(=O)CNC(=O)[C@H](CCC(=O)O)NC(=O)C(C)(C)NC(=O)[C@H](Cc1ccc(O)cc1)NC)[C@@H](C)O)[C@@H](C)CC)C(=O)N[C@@H](C)C(=O)N[C@@H](CC(C)C)C(=O)N[C@@H](CC(=O)O)C(=O)N[C@@H](CCCNC(=N)N)C(=O)NC(C)(C)C(=O)N[C@@H](C)C(=O)N[C@@H](CCC(N)=O)C(=O)NC(C)(C)C(=O)N[C@@H](CC(N)=O)C(=O)N[C@@H](Cc1ccccc1)C(=O)N[C@H](C(=O)N[C@@H](CC(N)=O)C(=O)N[C@@H](Cc1c[nH]c2ccccc12)C(=O)N[C@@H](CC(C)C)C(=O)N[C@@H](CC(C)C)C(=O)N[C@@H](C)C(=O)N[C@@H](CCCCNC(=O)COCCOCCNC(=O)COCCOCCNC(=O)CC[C@H](NC(=O)CC[C@H](NC(=O)CCCCCCCCCCCCCCCCC(=O)O)C(=O)O)C(=O)O)C(=O)N[C@@H](CO)C(=O)N1CCC[C@H]1C(=O)N[C@@H](CO)C(=O)N[C@@H](CO)C(=O)NCC(=O)N[C@@H](C)C(=O)N1CCC[C@H]1C(=O)N1CCC[C@H]1C(=O)N1CCC[C@H]1C(=O)N[C@@H](CO)C(N)=O)C(C)C [Compound 59] (H-[NMeY][Aib]EGTFISDYSIALDR[Aib]AQ[Aib]NFVNWLLAK([AEEA-AEEA-γGlu-γGlu-C18 diacid])SPSSGAPPPS-NH2)	–	–	≥ 30 mg/mL	≥ 15 mg/mL
CC[C@H](C)[C@H](NC(=O)[C@H](CO)NC(=O)[C@H](Cc1ccc(O)cc1)NC(=O)[C@H](CC(=O)O)NC(=O)[C@H](CO)NC(=O)[C@@H](NC(=O)[C@H](Cc1ccccc1)NC(=O)[C@@H](NC(=O)CNC(=O)[C@H](CCC(=O)O)NC(=O)C(C)(C)NC(=O)[C@H](Cc1ccc(O)cc1)NC)[C@@H](C)O)[C@@H](C)CC)C(=O)N[C@@H](C)C(=O)N[C@@H](CC(C)C)C(=O)N[C@@H](CC(=O)O)C(=O)N[C@@H](CCCNC(=N)N)C(=O)NC(C)(C)C(=O)N[C@@H](CCCCNC(=O)COCCOCCNC(=O)COCCOCCNC(=O)CC[C@H](NC(=O)CC[C@H](NC(=O)CCCCCCCCCCCCCCCCC(=O)O)C(=O)O)C(=O)O)C(=O)N[C@@H](CCC(N)=O)C(=O)NC(C)(C)C(=O)N[C@@H](CC(N)=O)C(=O)N[C@@H](Cc1ccccc1)C(=O)N[C@H](C(=O)N[C@@H](CC(N)=O)C(=O)N[C@@H](Cc1c[nH]c2ccccc12)C(=O)N[C@@H](CC(C)C)C(=O)N[C@@H](CC(C)C)C(=O)N[C@@H](C)C(=O)N[C@@H](CCC(N)=O)C(=O)N[C@@H](CCCNC(=N)N)C(N)=O)C(C)C [Compound 17] (H-[NMeY][Aib]EGTFISDYSIALDR[Aib]K([AEEA-AEEA-γGlu-γGlu-C18 diacid])Q[Aib]NFVNWLLAQR-NH2)	≥ 30 mg/mL	≥ 15 mg/mL	–	–
